This is an account of results in patent US20090053280A1, “COATING STENTS WITH CYCLIC RGD PEPTIDES OR MIMETICS” (priority 2007, published 2009).

This experiment relates to Human umbilical vein endothelial cells. The experiment is described as follows: Millicell migration assay of HUVECs towards a cyclic RGD peptide coated membrane. The settings on record: 2 hours, uncoated membranes. The class given is cell-based. The procedure: FIG. 7 (Example 5): Bar graph showing the results of migration assays utilizing specialized Millicell culture plates for in vitro testing. HUVECs were seeded onto the inside surface of Millicell membranes and semi-quantified following migration through a microporous membrane at the outside surface after two hours of incubation.
Millicell culture plate inserts from Millipore were coated with cyclic RGD peptide at the outside surface of the microporous membrane only to stimulate haplotactic cell migration. Human umbilical vein endothelial cells (HUVCEs) were loaded into millicell chambers in completed medium in the presence or absence of paclitaxel or sirolimus, and subsequently incubated for 2 hours at 37 C.°.

SMILES strings stand for the structures. Entries after “also recorded” stand apart in the source; their conditions may differ.

Take `CC(=O)O[C@H]1C(=O)[C@@]2(C)[C@H]([C@H](OC(=O)c3ccccc3)[C@]3(O)C[C@H](OC(=O)[C@H](O)[C@@H](NC(=O)c4ccccc4)c4ccccc4)C(C)=C1C3(C)C)[C@]1(OC(C)=O)CO[C@@H]1C[C@@H]2O` [paclitaxel]: the “Cell migration in the presence of the antiproliferative drug” value was “marked decrease; also recorded: almost completely abolished”.
